{"source": "patent US9937178B2", "about": "“Methods of identifying and using MDM2 inhibitors” (DUKE UNIVERSITY, priority 2011, dated 2018)", "key": {"rBT474 xenografts": {"test_system": "rBT474 xenografts", "test": "rBT474 mammary fat pad xenograft", "settings": "100 mg/kg each drug, twice daily by oral gavage", "experimental": "(§1) Forty-eight hours after siRNA transfection, cells were treated with 1 μM lapatinib for 48 hours, and cells were harvested and subjected to Annexin V staining. The percentage of Annexin V-positive cells was analyzed by FACS. Results are expressed as a mean percentage±SEM and analyzed by t-test (*P<0.05). […] The oral administration of lapatinib (100 mg/kg, twice daily by oral gavage) began when the average tumor volume surpassed 300 mm^3. Results are expressed as a mean percentage±SEM. […] After 36 hours, cells were harvested and immunoblotted. […] BT474 and rBT474 cells were injected into the mammary fad pad of each mouse. When tumors developed to a size of 200 mm^3, the mice were randomly assigned to receive vehicle, lapatinib (100 mg/kg), Nutlin-3 (100 mg/kg), or Lapatinib+Nutlin-3 and treated twice daily by oral gavage. Results are expressed as a mean percentage±SEM. […] Percentage of apoptotic cell death was measured by FACS analysis using Annexin V. Results are expressed as a mean percentage±SEM of Annexin V-positive cells (*P<0.05 by t-test).\n(§2) Six week-old female nude mice were purchased from NCI Frederic. Xenograft tumors were produced by injection into the mammary fat pad with cells (10×10^6). Tumor volumes were calculated every 3-4 days based on caliper measurements of the short (a) and long (b) tumor diameters (volume=a2b/2). […]"}, "BT474 xenografts": {"test_system": "BT474 xenografts", "test": "BT474 mammary fat pad xenograft", "settings": "100 mg/kg each drug, twice daily by oral gavage", "experimental": "as §1, §2"}, "AU565-derived tumor": {"test_system": "AU565-derived tumor", "test": "AU565 mammary fat pad xenograft", "format": "in vivo, mouse", "settings": "100 mg/kg each drug, twice daily by oral gavage", "experimental": "(§3) Six week-old female nude mice were purchased from NCI Frederic. Xenograft tumors were produced by injection into the mammary fat pad with cells (10×10^6). Tumor volumes were calculated every 3-4 days based on caliper measurements of the short (a) and long (b) tumor diameters (volume=a2b/2). […] Mice were dosed orally with vehicle alone, lapatinib (100 mg/kg), Nutlin-3 (100 mg/kg), or combination of both twice daily by gavage."}, "rAU565-derived tumor": {"test_system": "rAU565-derived tumor", "test": "rAU565 mammary fat pad xenograft", "settings": "100 mg/kg each drug, twice daily by oral gavage", "experimental": "as §3"}, "CAS": {"test_system": "CAS", "test": "Immunoblot of CAS protein levels", "format": "cell-based", "settings": "rSKBR3 cells, 1 μM lapatinib, 10 μM Nutlin-3a, 36 hours, z-VAD", "procedure": "FIG. 11 is a set of photographs of immunoblots showing CAS degradation in lapatinib-resistant cells. FIG. 11A is an immunoblot for CAS and Actin. BT474 and rBT474 (left) or AU565 and rAU565 cells (right) cultured in the absence of lapatinib for one week were treated with 1 μM lapatinib and the cells were harvested at various time points. FIG. 11B is an immmunoblot for CAS and Actin. rBT474 cells were maintained in the presence of […] lapatinib and the cells were harvested at various time points following removal of lapatinib. FIG. 11C is an immunoblot for FLAG and actin. BT474 and rBT474 cells were transiently transfected with FLAG-tagged CAS and subsequently treated with 50 μg/ml cycloheximide (CHX) and 1 μM lapatinib and the cells were harvested at various time points. FIG. 11D is an immunoblot using HA to analyze ubiquitination of CAS. BT474 and rBT474 (left) or SKBR3 and rSKBR3 cells (right) were co-transfected with FLAG-CAS and HA-Ub. […] After treatment with 10 μM MG 132 for 8 hours, cells were harvested and FLAG-CAS was retrieved by immunoprecipitation. FIG. 11E is an immunoblot for FLAG-tagged proteins retrieved by immunoprecipitation and association with MDM2. H1299 cells were transfected with empty vector, FLAG-CAS^W127A, or FLAG-CAS wild type. FIG. 11F is an immunoblot for CAs after immunoprecipitation for FLAG. H1299 cells were transfected with empty vector, FLAG-CAS^W127A, or FLAG-CAS wild type. Cells were treated with 10 μM MG132 for 3 hours. […] SKBR3 cells were transfected with increasing amounts of MDM2. After 48 hours, cells were harvested and immunoblotted (*non-specific band). FIG. 11H is an immunoblot for CAS. […] FIG. 11I is an immunoblot for MDM2 or CAs after immunoprecipitation with FLAG. BT474 and rBT474 cells were transfected with FLAG-CAS. […] After treatment with 10 μM MG132 for 5 hours, FLAG-CAS was retrieved by immunoprecipitation and association of endogenous MDM2 was analyzed by immunoblotting."}, "PP5": {"test_system": "PP5", "test": "Immunoblot of PP5 protein levels", "format": "cell-based", "settings": "rSKBR3 cells, 1 μM lapatinib, 10 μM Nutlin-3a, 36 hours, z-VAD", "procedure": "FIG. 7 is a set of photographs and graphs showing PP5 stability and post-cytochrome c protection in lapatinib-resistant cells. FIG. 7A is an immunoblot for caspase-9 (cleaved and non-cleaved) and cleaved caspase-3 (C9 and C3, respectively) showing rBT474 cells cultured in the absence or presence of 1 μM lapatinib for one week, as compared to BT474 cells which were maintained without lapatinib. Cytosolic lysates prepared from BT474 or rBT474 were incubated with 1 mM dATP and various amounts of cytochrome c (CC). FIG. 7B is a set of graphs showing Caspase 3 activity in the indicated cell lysates over time. Caspase-3 activity was assayed by measuring cleavage of DEVD-pNA following incubation of the cell lysates with 1 mM dATP and various concentrations of cytochrome c. FIG. 7C is an autoradiograph of ^32P and an immunoblot showing the percentage of the protein phosphorylated. In the presence of [γ-^32P]ATP, recombinant His-tagged HSP90β proteins (wild type and the indicated mutants) on nickel beads were incubated with the HSP90β-targeted kinase casein kinase 2. FIG. 7D is an autoradiograph and corresponding immunoblot showing BT474 or rBT474 cells after being cultured in the absence or presence of 1 μM lapatinib for 24 hours in the presence of z-VAD. Recombinant His-tagged HSP90β protein on nickel beads was incubated with the cell lysates in the presence of [γ-^32P]ATP. FIG. 7E is an immunoblot for phospho-Hsp90β (Ser226) and total HSP90β at various time points. […] FIG. 7F is a set of graphs showing FACS analysis for the phosphorylation status of Hsp90β (Ser255). BT474 or rBT474 cells cultured in the presence of 1 μM lapatinib for 24 hours were fixed with formaldehyde and incubated with phospho-Hsp90β (Ser255) antibody followed by an Alexa488-conjugated secondary antibody. FIG. 7G is an immunoblot for PP5 and actin at the indicated time points. BT474 and rBT474 (left) or AU565 and rAU565 cells (right) were treated with 1 μM lapatinib. FIG. 7H is an autoradiograph of immunoprecipitated FLAG-PP5 using an anti-FLAG agarose. […]"}, "Huwe1": {"test_system": "Huwe1", "test": "Immunoblot of Huwe1 protein levels and stability", "format": "cell-based", "settings": "rSKBR3 cells, 1 μM lapatinib, 10 μM Nutlin-3a, 36 hours, z-VAD", "procedure": "FIG. 13 is a set of immunoblots showing MDM2-mediated ubiquitylation and degradation of Huwe1 in lapatinib-resistant cells. […] Cells treated with 1 μM lapatinib were harvested at various time points and immunoblotted. […] FIG. 13B is an immunoblot for HA and actin. BT474 and rBT474 cells were transiently transfected with HA-tagged Huwe1 and subsequently treated with 50 μg/ml cycloheximide (CHX) and 1 μM lapatinib. FIG. 13C is an immunoblot for Huwe1 and MDM2. Immunoprecipitation was carried out using H1299 cell lysates and anti-Huwe1 antibody (or control IgG). FIG. 13D is an immunoblot for HA or MDM2 after immunoprecipitation with HA. BT474 cells were transfected with HA-tagged Huwe1 encoding the full-length protein, residues 1-2474, or residues 2473-4374. […] H1299 cells were transfected with empty vector, HA-Huwe1^W1202A, or HA-Huwe1 wild type. FIG. 13F is an immunoblot for Huwe1 and Actin. BT474 cells were transfected with increasing amounts of MDM2 and harvested after 48 hours. FIG. 13G is an immunoblot for Huwe1, MDM2, and actin. […] FIG. 13H is an immunoblot for Huwe1. Ubiquitylation of Huwe1 was reconstituted in vitro by incubating recombinant Huwe1 protein (Huwe1^1-2474) with E1, UbcH5 (E2), ubiquitin (Ub), and recombinant MDM2 protein in reaction buffer at 37° C. for 3 hours. […] Twenty-four hours later, the cells were replated and further transfected with HA-tagged Huwe1 (wild type). Forty-eight hours after siRNA transfection, the cells were treated with 1 μM lapatinib. After 24 hours of lapatinib treatment, 50 μg/ml cycloheximide (CHX) was added to the culture medium and cells were harvested at various time points for immunoblotting."}, "Mcl-1 [1]": {"test_system": "Mcl-1", "test": "Immunoblot of Mcl-1 protein levels", "format": "cell-based", "settings": "rSKBR3 cells, 1 μM lapatinib, 10 μM Nutlin-3a, 36 hours, z-VAD", "procedure": "FIG. 3 is a set of photographs showing that Mcl-1 is stabilized in lapatinib-resistant cells. […] FIG. 3B is a set of immunoblots showing the levels of HER2 and phospho-HER2 in untreated cells and cells treated with lapatinib. Cells were treated with or without lapatinib (1 μM) for 24 hours in the presence of the caspase inhibitor z-VAD (50 μM). The cells were harvested and cell lysates were immunoblotted using antibodies against phospho-HER2 (Y877) and total HER2. FIG. 3C is an immunoblot for phospho-AKT (T308) and total AKT. BT474 and rBT474 cells were treated with 1 μM lapatinib in the presence of 50 μM z-VAD. At the indicated time points, the cells were harvested and immunoblotted. FIG. 3D is an immunoblot for phospho-Erl1/2(T202/Y204) and total Erk1/2. BT474 and rBT474 cells were treated with 1 μM lapatinib in the presence of 50 μM z-VAD. At the indicated time points, the cells were harvested and immunoblotted. FIG. 3E is an immunoblot for Mcl-1, Bim, and Actin. BT474 and rBT474 cells (left) or SKBR3 and rSKBR3 cells (right) were treated with 1 μM lapatinib. The cells were harvested at the indicated time points and immunoblotted. FIG. 3F is an autoradiograph showing the ^35[S] radioactivity in lysates containing ^35[S]-Mcl-1 at the indicated time points. ^35[S]-labeled Mcl-1 protein was incubated in cell-free lysates prepared from BT474 and rBT474 cells (top) or SKBR3 and rSKBR3 cells (bottom). FIG. 3G is an autograph showing the ^35[S]-labeled Mcl-1 to monitor Mcl-1 stability over time. The ^35[S]-labeled Mcl-1 was incubated in lysates prepared from rBT474 cells treated with or without 1 μM lapatinib. FIG. 3H is an immunoblot for HA. SKBR3 or rSKBR3 cells were co-transfected with FLAG-Mcl-1 and HA-Ubiquitin (Ub). […] Cells were harvested after treatment with 10 μM MG 132 for 4 hours. FLAG-Mcl-1 was retrieved by immunoprecipitation using anti-flag agarose, and Mcl-1 ubiquitylation was analyzed by immunoblotting for HA (*non-specific band, **IgG heavy chain)."}, "Mcl-1 [2]": {"test_system": "Mcl-1", "test": "35[S]-Mcl-1 degradation in cell-free lysates", "format": "cell-based", "settings": "resistant cell lysates, 5 μM ubiquitin aldehyde", "procedure": "FIG. 3 is a set of photographs showing that Mcl-1 is stabilized in lapatinib-resistant cells. […] FIG. 3B is a set of immunoblots showing the levels of HER2 and phospho-HER2 in untreated cells and cells treated with lapatinib. Cells were treated with or without lapatinib (1 μM) for 24 hours in the presence of the caspase inhibitor z-VAD (50 μM). The cells were harvested and cell lysates were immunoblotted using antibodies against phospho-HER2 (Y877) and total HER2. FIG. 3C is an immunoblot for phospho-AKT (T308) and total AKT. BT474 and rBT474 cells were treated with 1 μM lapatinib in the presence of 50 μM z-VAD. At the indicated time points, the cells were harvested and immunoblotted. FIG. 3D is an immunoblot for phospho-Erl1/2(T202/Y204) and total Erk1/2. BT474 and rBT474 cells were treated with 1 μM lapatinib in the presence of 50 μM z-VAD. At the indicated time points, the cells were harvested and immunoblotted. […] FIG. 3F is an autoradiograph showing the ^35[S] radioactivity in lysates containing ^35[S]-Mcl-1 at the indicated time points. ^35[S]-labeled Mcl-1 protein was incubated in cell-free lysates prepared from BT474 and rBT474 cells (top) or SKBR3 and rSKBR3 cells (bottom). […] FLAG-Mcl-1 was retrieved by immunoprecipitation using anti-flag agarose, and Mcl-1 ubiquitylation was analyzed by immunoblotting for HA (*non-specific band, **IgG heavy chain). […]"}}, "data": [{"compound": "COc1ccc(C2=N[C@@H](c3ccc(Cl)cc3)[C@@H](c3ccc(Cl)cc3)N2C(=O)N2CCNC(=O)C2)c(OC(C)C)c1", "note": "[Nutlin-3]", "values": [{"measurement": "rBT474-derived tumor growth", "setting": "rBT474 xenografts", "value": "Neither lapatinib nor Nutlin-3 inhibited"}, {"measurement": "growth of BT474-derived tumors", "setting": "BT474 xenografts", "value": "only modestly inhibited"}, {"measurement": "AU565-derived tumor growth", "setting": "AU565-derived tumor", "value": "moderate tumor inhibitory effects"}, {"measurement": "rAU565-derived tumor growth", "setting": "rAU565-derived tumor", "value": "moderate tumor inhibitory effects"}]}, {"compound": "COc1ccc(C2=N[C@@H](c3ccc(Cl)cc3)[C@@H](c3ccc(Cl)cc3)N2C(=O)N2CCNC(=O)C2)c(OC(C)C)c1", "note": "[Nutlin-3a]", "values": [{"measurement": "CAS degradation", "setting": "CAS", "value": "significantly inhibited"}, {"measurement": "lapatinib-induced upregulation of PP5", "setting": "PP5", "value": "suppressed"}, {"measurement": "lapatinib-induced degradation of Huwe1", "setting": "Huwe1", "value": "prevented"}, {"measurement": "lapatinib-induced upregulation of Mcl-1", "setting": "Mcl-1 [1]", "value": "suppressed"}]}, {"compound": "ubiquitin aldehyde", "values": [{"measurement": "degradation of 35[S]-Mcl-1", "setting": "Mcl-1 [2]", "value": "did not prevent the failure to degrade"}]}]}
